According to paper PMC10146491, “Meroterpenoids from Gongolaria abies-marina against Kinetoplastids: In Vitro Activity and Programmed Cell Death Study” (Pharmaceuticals, 2023):

What was measured:
[1] = test system: promastigotes of L. amazonensis; test: Leishmanicidal activity assay (Alamar Blue), promastigotes; format: cell-based, Leishmania amazonensis; conditions: for Selectivity index (CC50/IC50), L. amazonensis: CC50 in murine macrophages; for IC50: Leishmania amazonensis, 72 h, Alamar Blue, read-out: Antikinetoplastid activity IC50, L. amazonensis
Description: (§1) To carry out the experiments, promastigotes of Leishmania amazonensis (MHOM/BR/77/LTB0016) and L. donovani (MHOM/IN/90/GE1F8R) and epimastigotes of Trypanosoma cruzi (Y strain) were employed. Leishmania species were cultured in Schneider’s medium (Sigma-Aldrich, Madrid, Spain), supplemented with 10% fetal bovine serum (VWR, Biowest, Nuaillé, France) and incubated at 26 °C. RPMI 1640 medium (Gibco, Thermo Fisher, Madrid, Spain) with or without phenol red was also used to culture the parasites at the same temperature. Epimastigotes of T. cruzi were cultured in liver infusion tryptose (LIT) medium supplemented with 10% fetal bovine serum at 26 °C. A cytotoxicity assay was performed using a murine macrophage cell line J774A.1 (ATCC TIB-67), which was maintained in Dulbecco’s modified Eagle’s medium (Gibco, Thermo Fisher, Madrid, Spain) supplemented with 10% of fetal bovine serum at 37 °C in a 5% CO2 atmosphere.
(§2) With the objective of determining the antiparasitic activity of the compounds isolated from G. abies-marina, leishmanicidal activity assays were performed against promastigote stages of L. amazonensis and L. donovani, as well as a trypanocidal activity assay performed against epimastigote stages of T. cruzi. In both parasites, a colorimetric assay was used based on the Alamar Blue reagent (Life Technologies, Madrid, Spain) as previously described by Bethencourt-Estrella et al. (2021).
(§3) In a sterile 96 well-plate, serial dilutions of the extracts, fractions or compounds isolated from G. abies-marina were performed in RPMI 1640 medium without phenol red (in the case of Leishmania spp.) or in LIT (in the case of T. cruzi) with a final volume of 100 µL. Parasites were added to wells to reach a concentration of 5 × 10^5 (Leishmania spp.) or 2.5 × 10^5 (T. cruzi) until a final volume of 200 µL/well. Next, 10% of Alamar Blue® was placed into each well and the plate was incubated for 72 h at 26 °C. Finally, the fluorescence of each well was measured using an EnSpire® Multimode Plate Reader (Perkin Elmer, Madrid, Spain) (544 nm excitation, 590 nm emission) and the concentration that inhibits 50% of the parasite population (IC50) was calculated using a non-linear regression analysis with 95% confidence limits. Miltefosine and benznidazol were used as reference drugs. To analyze the data and calculate the IC50, SigmaPlot 12.0 statistical analysis software (Systat Software Inc, Palo Alto, CA, USA) was used.
(§4) The 50% inhibitory concentration (IC50) and 50% cytotoxic concentration (CC50) values were obtained using Sigma Plot 12.0 statistical analysis software (Systat Software) and calculated using a non-linear regression analysis with 95% confidence limits. Leishmanicidal and trypanocidal activity assays, as well as cytotoxicity assays, were performed three times on different days, and the results were expressed as means ± standard deviations. The analysis of variance was determined using a one-way ANOVA using the GraphPad.PRISM® 9.0 software program (GraphPad Software, San Diego, CA, USA). Differences at p < 0.05 were considered statistically significant.

[2] = test system: promastigotes of L. donovani; test: as above; format: cell-based, Leishmania donovani; conditions: for Selectivity index (CC50/IC50), L. donovani: CC50 in murine macrophages; for IC50: Leishmania donovani, 72 h, Alamar Blue, read-out: Antikinetoplastid activity IC50, L. donovani
Description: as §1, §2, §3, §4

[3] = test system: intracellular amastigotes of L. amazonensis; test: In vitro effect against amastigote stage in infected macrophages; format: cell-based, Leishmania amazonensis; conditions: for Selectivity index (CC50/IC50), amastigotes of L. amazonensis: CC50 in murine macrophages; for IC50: Leishmania amazonensis, J774.A1, intracellular amastigotes in J774A.1 macrophages, 24 h treatment
Description: To determine the in vitro effect against the amastigote stage of L. amazonensis, murine macrophages were infected. In a sterile 96 well-plate, macrophages of the J774A.1 cell line were placed in RPMI 1640 to reach 10^5 macrophages per well. This plate was incubated at 37 °C in a 5% CO2 atmosphere. After one hour of incubation, 100 µL of stationary-phase promastigotes of 7-day-old culture was added in a 10:1 ratio (10^6 parasites per well) and the plates were re-incubated at 37 °C for 24 h to achieve maximum infection. Then, the wells were washed with fresh medium to remove non-phagocytosed promastigotes. The infected macrophages were treated with the compounds isolated for 24 h. Then, the medium was removed carefully to be replaced by 30 μL of 0.05% SDS and the plate was shaken for 30 s. After broke macrophages, 170 μL of Schneider’s medium was added to each well to give a final volume of 200 μL and 20 μL of Alamar Blue® was added to the plate being incubated at 26 °C for 72 h, as described by López-Arencibia et al. (2017). After 72 h of incubation, the plates were analyzed using the same protocol for the promastigote test.

[4] = Cytotoxicity assay (Alamar Blue); format: cell-based; conditions: mouse, J774A.1 murine macrophage cell line, J774A.1, 24 h, read-out: Cytotoxicity CC50, murine macrophages
Description: as §1
In a sterile 96-well plate, murine macrophages of the cell line J774A.1 were placed to reach an amount of 10^5 cells per well using RPMI 1640 medium without phenol red. After murine macrophage attachment, 50 µL serial dilutions of the isolated compounds were added in each well until reaching a final volume of 100 µL. Next, 10% of Alamar Blue® was placed into each well and the plate was incubated for 24 h at 37 °C with a 5% CO2 atmosphere. Finally, the plates were analyzed using an EnSpire® Multimode Plate Reader (PerkinElmer, Madrid, Spain), as described in the previous section, and the 50% cytotoxic concentration (CC50) values were calculated.
as §4

[5] = test system: epimastigotes of Trypanosoma cruzi; test: Trypanocidal activity assay (Alamar Blue), epimastigotes; format: cell-based; conditions: for Selectivity index (CC50/IC50), T. cruzi: CC50 in murine macrophages; for IC50: Trypanosoma cruzi, 72 h, Alamar Blue, read-out: Antikinetoplastid activity IC50, T. cruzi
Description: as §1, §2, §3, §4

[6] = test system: intracellular form of L. infantum; parameters: method as in PMID 28126391; conditions: read-out: IC50 against the intracellular form of L. infantum; cited from earlier work
[7] = test system: promastigotes of Leishmania infantum; parameters: method as in PMID 28126391; conditions: read-out: IC50 against promastigotes of Leishmania infantum; cited from earlier work
[8] = test system: L. amazonensis promastigotes; test: ATP level analysis (Cell Titer-Glo); format: cell-based, Leishmania amazonensis; conditions: IC90 of compound, 24 h
Description: To study the mechanism of cell death induced in parasites by compounds isolated from Gongolaria abies-marina, a common step was carried out to perform the following five experiments. The promastigotes of Leishmania spp. and epimastigotes of T. cruzi were incubated at the IC90 levels of the compounds (previously calculated) for 24 h at 26 °C. After incubation, the parasites were centrifuged at 3000 rpm for 10 min at 4 °C. The pellets were resuspended following the manufacturer’s instructions for each kit. After the incubation of promastigotes and epimastigotes of the parasites with the IC90 of the compounds, the changes in ATP levels were measured using a Cell Titer-Glo® Luminescent Cell Viability Assay (Promega, WI, USA). The assay was carried out in a white 96-well plate following the manufacturer’s instructions, as previously described by Cartuche et al. (2020). The luminescence was measured using an EnSpire® Multimode Plate Reader (PerkinElmer, Madrid, Spain).

T. cruzi epimastigotes [9] = test: Transmission electron microscopy, ultrastructural effects; format: cell-based, Trypanosoma cruzi; conditions: IC90, 24 h
Description: (§5) The analysis of the ultrastructural and morphological damage caused by the compounds in the parasites was performed in collaboration with the Facultad de Estudios Superiores Iztacala (FESI), Medicina, UNAM (Mexico). These assays were performed after incubation of the promastigotes of L. amazonensis and epimastigotes of T. cruzi at the IC90 levels of the pure compounds over 24 h. TEM images were obtained using the conventional microscopy technique as previously described by Castelan-Ramirez et al. in a JEOL JEM-1011 transmission electron microscope (JEOL Ltd., Tokyo, Japan).

T. cruzi epimastigotes [10] = test: Mitochondrial membrane potential (JC-1 assay); format: cell-based, Trypanosoma cruzi; conditions: IC90, 24 h
Description: To study the mechanism of cell death induced in parasites by compounds isolated from Gongolaria abies-marina, a common step was carried out to perform the following five experiments. The promastigotes of Leishmania spp. and epimastigotes of T. cruzi were incubated at the IC90 levels of the compounds (previously calculated) for 24 h at 26 °C. After incubation, the parasites were centrifuged at 3000 rpm for 10 min at 4 °C. The pellets were resuspended following the manufacturer’s instructions for each kit. A JC-1 Mitochondrial Membrane Potential Assay Kit® (Cayman Chemical, Ann Arbor, MI, USA) was used to analyze variations in the mitochondrial membrane potential of the parasites after incubation at the IC90 levels of the compounds. After centrifugation, the parasites were resuspended in the same buffer and transferred to a black 96-well plate. JC-1 was added following the manufacturer’s instructions as also described by López-Arencibia et al. (2020). Green and red fluorescence was measured using an EnSpire® Multimode Plate Reader (PerkinElmer, Madrid, Spain).

[11] = test system: L. amazonensis promastigotes; test: Transmission electron microscopy, ultrastructural effects; format: cell-based, Leishmania amazonensis; conditions: IC90, 24 h
Description: as §5

[12] = listed as 6Z-1′-methoxyamentadione
[13] = listed as 6Z-1′-methoxyamentadione (3)

Row | Molecule | Selectivity index (CC50/IC50), L. amazonensis [1] | IC50 [1] | Selectivity index (CC50/IC50), L. donovani [2] | IC50 [2] | Selectivity index (CC50/IC50), amastigotes of L. amazonensis [3] | IC50 [3] | CC50 at 24 h [4] | Selectivity index (CC50/IC50), T. cruzi [5] | IC50 [5] | also measured
1 | CCCCCCCCCCCCCCCCOP(=O)([O-])OCC[N+](C)(C)C [Miltefosine, miltefosine, reference compound] | 11.10 | 6.48 ± 0.1 µM | 21.80 | 3.31 ± 0.11 µM | 23.16 | 3.12 ± 0.12 µM | 72.2 ± 1.25 µM | – | – | –
2 | O=C(Cn1ccnc1[N+](=O)[O-])NCc1ccccc1 [Benznidazole, benznidazole, reference compound] | – | – | – | – | – | – | – | 57.51 | 6.95 ± 0.5 µM | –
3 | 3R-tetraprenyltoluquinone | – | – | – | – | – | – | – | – | – | IC50 [6]: 25 µM; IC50 [7]: 44.9 µM
4 | COc1c(C)cc(O)cc1C/C=C(\C)CC(=O)C/C(C)=C/CC[C@@H](C)C(=O)/C=C/C(C)(C)O [Gongolarone B (2), gongolarone B] | 3.79 | 6.45 ± 0.44 µM | – | – | 1.50 | 16.2 ± 1.9 µM | 24.4 ± 3.98 µM | 8.36 | 2.92 ± 0.25 µM | Activity against L. donovani (in words) [2]: lost its activity; ATP levels relative to negative control [8]: decreased; Ultrastructural and morphological alterations (TEM) (T. cruzi epimastigotes [9]; listed as gongolarone B): morphological mitochondrial (M) and kinetoplast (K) alterations, chromatin condensation in the nucleus (*), intense vacuolization (V) and the formation of some autophagy vacuoles; Ultrastructural and morphological alterations (TEM) (T. cruzi epimastigotes [9]; listed as gongolarone B (2)): Morphological alterations of the mitochondria and kinetoplast; Mitochondrial membrane potential changes (JC-1) (T. cruzi epimastigotes [10]): greatest decrease; Ultrastructural and morphological alterations (TEM) [11]: mitochondrial expansion (M), chromatin condensation in the nucleus (*), intense vacuolization (V), the formation of some autophagy vacuoles
5 | COc1c(C)cc(O)cc1C/C=C(\C)CC(=O)/C=C(\C)CCC[C@@H](C)C(=O)/C=C/C(C)(C)O [1′-Methoxyamentadione (4), 1′-methoxyamentadione] | 5.41 | ~4.88 µM | 0.21 | 126.5 ± 1.15 µM | 0.96 | 27.6 ± 1.68 µM | 26.4 ± 2.27 µM | 5.36 | 4.93 ± 0.55 µM | Ultrastructural and morphological alterations (TEM) (T. cruzi epimastigotes [9]): morphological mitochondrial (M) and kinetoplast (K) alterations, chromatin condensation in the nucleus (*), intense vacuolization (V) and the formation of some autophagy vacuoles; Ultrastructural and morphological alterations (TEM) ([11]; listed as 1′-methoxyamentadione): mitochondrial expansion (M), chromatin condensation in the nucleus (*), intense vacuolization (V), the formation of some autophagy vacuoles; Ultrastructural and morphological alterations (TEM) ([11]; listed as 1′-methoxyamentadione (4)): alteration of the flagellar pocket; Ultrastructural and morphological alterations (TEM) ([11]; listed as 4): showed two nuclei
6 | COc1c(C)cc(O)cc1C/C=C(\C)CC(=O)/C=C(/C)CCC[C@@H](C)C(=O)/C=C/C(C)(C)O [6Z-1′-Methoxyamentadione (3), 6Z-1′-methoxyamentadione] | 5.49 | ~4.88 µM | 0.27 | 97.9 ± 5.32 µM | 1.66 | 16.2 ± 2.61 µM | 26.8 ± 4.06 µM | 8.19 | 3.26 ± 0.11 µM | ATP levels relative to negative control [8]: greatest effect; Ultrastructural and morphological alterations (TEM) (T. cruzi epimastigotes [9]; [12]): morphological mitochondrial (M) and kinetoplast (K) alterations, chromatin condensation in the nucleus (*), intense vacuolization (V) and the formation of some autophagy vacuoles; Ultrastructural and morphological alterations (TEM) (T. cruzi epimastigotes [9]; [13]): Morphological alterations of the mitochondria and kinetoplast; Ultrastructural and morphological alterations (TEM) [11, 12]: mitochondrial expansion (M), chromatin condensation in the nucleus (*), intense vacuolization (V), the formation of some autophagy vacuoles; Ultrastructural and morphological alterations (TEM) [11, 13]: alteration of the flagellar pocket
7 | 3S-tetraprenyltoluquinone | – | – | – | – | – | – | – | – | – | IC50 [6]: 88 µM; IC50 [7]: 94.4 µM
